The source of these data is ChEMBL document CHEMBL1147989, “Synthesis and structure-activity relationships of 4-hydroxy-4-phenylpiperidines as nociceptin receptor ligands: Part 2” (Bioorg Med Chem Lett, 2007).

Assay [1] has as its target T1, Nociceptin receptor (Homo sapiens, UniProt P41146). Put plainly: Displacement of [125I][Tyr14]nociceptin FQ from human NOP receptor expressed in CHO cell membrane. The assay is classed as cell membranes. For orientation: Displacement assays read how much labelled ligand stays bound in the presence of the test substance.
In assay [2] the target is Delta-type opioid receptor (Homo sapiens, UniProt P41143). Description: Displacement of [3H]diprenorphine from human DOP receptor expressed in CHO cell membrane. The assay is classed as cell membranes.
Delta-type opioid receptor, sequence (P41143 whole entry): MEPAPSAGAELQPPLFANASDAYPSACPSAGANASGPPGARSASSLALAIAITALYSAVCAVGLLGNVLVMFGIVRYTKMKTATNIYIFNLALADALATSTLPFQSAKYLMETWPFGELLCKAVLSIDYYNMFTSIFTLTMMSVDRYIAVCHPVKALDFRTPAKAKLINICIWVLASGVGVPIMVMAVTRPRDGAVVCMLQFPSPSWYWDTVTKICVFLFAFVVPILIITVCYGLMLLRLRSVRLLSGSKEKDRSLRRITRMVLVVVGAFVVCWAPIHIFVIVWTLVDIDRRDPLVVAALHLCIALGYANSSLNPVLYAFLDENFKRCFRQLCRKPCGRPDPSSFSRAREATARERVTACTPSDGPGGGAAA
In assay [3] the target is Kappa-type opioid receptor (Homo sapiens, UniProt P41145). Put plainly: Displacement of [3H]diprenorphine from human KOP receptor expressed in CHO cell membrane. The assay is classed as cell membranes.
Kappa-type opioid receptor, sequence (P41145 whole entry): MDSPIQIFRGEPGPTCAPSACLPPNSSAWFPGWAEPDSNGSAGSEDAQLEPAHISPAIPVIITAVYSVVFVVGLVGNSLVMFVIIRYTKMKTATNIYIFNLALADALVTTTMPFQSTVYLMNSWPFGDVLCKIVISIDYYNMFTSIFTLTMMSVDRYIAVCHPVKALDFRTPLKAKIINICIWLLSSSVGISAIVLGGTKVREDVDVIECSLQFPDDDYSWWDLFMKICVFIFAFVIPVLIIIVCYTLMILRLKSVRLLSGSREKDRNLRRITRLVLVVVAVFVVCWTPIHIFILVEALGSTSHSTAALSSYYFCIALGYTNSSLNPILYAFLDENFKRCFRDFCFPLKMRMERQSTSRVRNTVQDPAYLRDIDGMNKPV
In another assay the target is Mu-type opioid receptor (Homo sapiens, UniProt P35372). Put plainly: Displacement of [3H]diprenorphine from human MOP receptor expressed in CHO cell membrane. It counts as cell membranes.
Mu-type opioid receptor, sequence (P35372 whole entry): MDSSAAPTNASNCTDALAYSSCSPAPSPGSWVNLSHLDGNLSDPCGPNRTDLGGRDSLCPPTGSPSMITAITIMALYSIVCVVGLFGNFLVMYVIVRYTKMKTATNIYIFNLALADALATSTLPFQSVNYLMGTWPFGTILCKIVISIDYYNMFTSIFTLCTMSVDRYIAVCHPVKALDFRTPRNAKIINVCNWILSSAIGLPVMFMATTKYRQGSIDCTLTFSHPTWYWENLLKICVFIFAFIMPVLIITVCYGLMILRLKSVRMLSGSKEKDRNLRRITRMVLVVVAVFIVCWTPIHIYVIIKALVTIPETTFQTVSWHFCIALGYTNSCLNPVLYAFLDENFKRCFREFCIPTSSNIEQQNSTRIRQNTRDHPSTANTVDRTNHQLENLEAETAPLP
Assay [4] deals with T1, Nociceptin receptor. Put plainly: Agonist activity at human NOP receptor transfected in CHO cells assessed as stimulation of [35S]GTPgammaS at 1 uM. The assay is classed as functional, cell-based. (Binding of GTPγS marks nucleotide exchange on a G protein.)

pKi: −log10 of the molar value.

T1 sequence (P41146 whole entry): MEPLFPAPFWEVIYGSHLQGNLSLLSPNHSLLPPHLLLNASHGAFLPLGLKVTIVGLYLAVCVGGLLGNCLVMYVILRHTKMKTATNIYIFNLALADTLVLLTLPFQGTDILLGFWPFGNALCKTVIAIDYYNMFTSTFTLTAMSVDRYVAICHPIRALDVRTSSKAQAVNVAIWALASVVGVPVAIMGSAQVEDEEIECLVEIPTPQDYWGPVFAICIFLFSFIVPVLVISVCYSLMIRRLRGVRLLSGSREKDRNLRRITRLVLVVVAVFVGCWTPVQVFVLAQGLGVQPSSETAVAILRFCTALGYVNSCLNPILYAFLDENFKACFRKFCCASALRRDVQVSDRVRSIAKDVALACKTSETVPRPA

Broadly, the pKi is −log10 of the Ki, conventionally taken in molar units. A low value points to a large Ki. As for `CCCc1ccc(C2(O)CCN(C(c3ccccc3)c3ccccc3)CC2)cc1`, the pKi on Nociceptin receptor [1] is 5.76; in assay [2] it was 4.48; in assay [3] it was 4.71; at Mu-type opioid receptor, 4.94.

On to `OC1(c2ccccc2F)CCN(C(c2ccccc2)c2ccccc2)CC1`, for which the pKi on Nociceptin receptor [1] was 7.47; in assay [2] it was 5.25; in assay [3] it was 5.76; at Mu-type opioid receptor, 6.23.

`CCCCc1ccc(C2(O)CCN(C(c3ccccc3)c3ccccc3)CC2)cc1` showed a pKi on Nociceptin receptor [1] of 5.04.

Regarding `NCc1ccccc1C1(O)CCN(C(c2ccc(Cl)cc2)c2ccc(Cl)cc2)CC1`, the pKi on Nociceptin receptor [1] is 6.17; in assay [2] it was 5.40; in assay [3], 5.68; at Mu-type opioid receptor, 5.51.

With `OC1(Cc2ccccc2)CCN(C(c2ccccc2)c2ccccc2)CC1`, the negative logarithm of the Ki (pKi) was 5.66 at Nociceptin receptor [1], 4.82 in assay [2], 5.84 in assay [3] and 4.98 at Mu-type opioid receptor.

Regarding `COc1ccc(C2(O)CCN(C(c3ccccc3)c3ccccc3)CC2)cc1`, the negative-log Ki (pKi) on Nociceptin receptor [1] was 6.23; in assay [2], 4.72; in assay [3], 4.99; at Mu-type opioid receptor, 4.96.

Take `CCCCCC(c1ccccc1)N1CCC(O)(c2ccccc2CN)CC1` (configuration not stated): the pKi is 9.30 on Nociceptin receptor [1], 6.22 in assay [2], 7.52 in assay [3] and 8.70 on Mu-type opioid receptor.

`OC1(CCCc2ccccc2)CCN(C(c2ccccc2)c2ccccc2)CC1`: the negative-log Ki (pKi) is 5.78 on Nociceptin receptor [1], 4.86 in assay [2], 5.74 in assay [3] and 5.47 on Mu-type opioid receptor.

For `OCc1ccccc1C1(O)CCN(C(c2ccccc2)c2ccccc2)CC1`, the pKi is 7.80 at Nociceptin receptor [1], 5.36 in assay [2], 5.56 in assay [3] and 6.73 on Mu-type opioid receptor.

With `CC(C)S(=O)(=O)NCc1ccccc1C1(O)CCN(C(c2ccccc2Cl)c2ccccc2Cl)CC1`, the pKi on Nociceptin receptor [1] was 8.39; in assay [2], 6.29; in assay [3] it was 6.76; on Mu-type opioid receptor, 6.79.

On to `CC(C)C1(O)CCN(C(c2ccccc2)c2ccccc2)CC1`, for which the pKi on Nociceptin receptor [1] was 6.36; in assay [2], 4.28; in assay [3], 5.13; at Mu-type opioid receptor it was 4.88.

In the case of `OC1(c2ccc(Br)cc2)CCN(C(c2ccccc2)c2ccccc2)CC1`, the pKi on Nociceptin receptor [1] was 7.29; in assay [2], 4.82; in assay [3] it was 5.58; on Mu-type opioid receptor it was 5.98.

For the molecule `OC1(C2CC2)CCN(C(c2ccccc2)c2ccccc2)CC1`, the negative-log Ki (pKi) was 6.42 on Nociceptin receptor [1], 3.88 in assay [2], 4.58 in assay [3] and 4.74 on Mu-type opioid receptor.

On to `CCCCC(c1ccccc1)N1CCC(O)(c2ccccc2CN)CC1` (configuration not stated), for which the negative logarithm of the Ki (pKi) at Nociceptin receptor [1] is 9.40; in assay [2], 5.92; in assay [3], 7.82; on Mu-type opioid receptor, 8.70.

Molecule `NCc1ccccc1C1(O)CCN(Cc2ccccc2)CC1` showed a pKi on Nociceptin receptor [1] of 6.34.

With `OC1(c2ccccc2CN2CCOCC2)CCN(C(c2ccccc2Cl)c2ccccc2Cl)CC1`, the negative logarithm of the Ki (pKi) on Nociceptin receptor [1] is 8.23; in assay [2] it was 5.54; in assay [3], 6.49; at Mu-type opioid receptor it was 6.92.

In turn, `OC1(c2nccs2)CCN(C(c2ccccc2)c2ccccc2)CC1` gave a pKi on Nociceptin receptor [1] of 5.90.

In the case of `CCCCC1(O)CCN(C(c2ccccc2)c2ccccc2)CC1`, the pKi at Nociceptin receptor [1] is 7.64; in assay [2] it was 4.73; in assay [3], 5.34; on Mu-type opioid receptor it was 6.57.

Regarding `Cc1ccccc1C(c1ccccc1C)N1CCC(O)(c2ccccc2CN)CC1`, the pKi on Nociceptin receptor [1] was 9.30; in assay [2], 5.07; in assay [3] it was 6.35; on Mu-type opioid receptor, 6.72. The Activity at Nociceptin receptor [4] worked out at 94%.

As for `NCc1ccccc1C1(O)CCN(C(c2ccccc2)c2ccccc2)CC1`, the negative logarithm of the Ki (pKi) is 8.80 on Nociceptin receptor [1]; 8.80 at Nociceptin receptor [1] (cho); 4.86 in assay [2]; 4.86 in assay [2] (cho); 5.78 in assay [3]; 5.78 in assay [3] (cho). Moreover, the negative-log Ki (pKi) on Mu-type opioid receptor and on Mu-type opioid receptor (cho) was 6.90 throughout.

With `Cc1ccsc1C1(O)CCN(C(c2ccccc2)c2ccccc2)CC1`, the pKi was 7.82 on Nociceptin receptor [1], 5.05 in assay [2], 5.59 in assay [3] and 6.12 at Mu-type opioid receptor.

Turning to `CCNC(=O)NCc1ccccc1C1(O)CCN(C(c2ccccc2Cl)c2ccccc2Cl)CC1`, the negative-log Ki (pKi) at Nociceptin receptor [1] is 7.92; in assay [2], 5.61; in assay [3] it was 6.48; on Mu-type opioid receptor it was 6.52.

As for `CCS(=O)(=O)N1CCN(Cc2ccccc2C2(O)CCN(C(c3ccccc3Cl)c3ccccc3Cl)CC2)CC1`, the negative-log Ki (pKi) is 9.05 at Nociceptin receptor [1], 5.80 in assay [2], 6.84 in assay [3] and 6.45 at Mu-type opioid receptor.

Consider `OC1(c2ccccn2)CCN(C(c2ccccc2)c2ccccc2)CC1`, for which the negative logarithm of the Ki (pKi) on Nociceptin receptor [1] is 6.50; in assay [2] it was 4.34; in assay [3], 4.88; at Mu-type opioid receptor, 4.94.

`CC(C)S(=O)(=O)N1CCN(Cc2ccccc2C2(O)CCN(C(c3ccccc3Cl)c3ccccc3Cl)CC2)CC1`: the pKi at Nociceptin receptor [1] was 9.22; in assay [2] it was 5.50; in assay [3], 6.73; on Mu-type opioid receptor it was 6.45.

As for `Cc1ccc(C2(O)CCN(C(c3ccccc3)c3ccccc3)CC2)cc1`, the pKi on Nociceptin receptor [1] is 7.26; in assay [2], 4.92; in assay [3], 5.39; on Mu-type opioid receptor, 6.03.

In the case of `CCCS(=O)(=O)NCc1ccccc1C1(O)CCN(C(c2ccccc2Cl)c2ccccc2Cl)CC1`, the pKi is 7.82 at Nociceptin receptor [1], 6.11 in assay [2], 6.91 in assay [3] and 6.57 on Mu-type opioid receptor.

On to `CCc1ccc(C2(O)CCN(C(c3ccccc3)c3ccccc3)CC2)cc1`, for which the pKi at Nociceptin receptor [1] was 5.89; in assay [2], 4.60; in assay [3] it was 4.94; on Mu-type opioid receptor, 5.46.

As for `N#Cc1ccc(C2(O)CCN(C(c3ccccc3)c3ccccc3)CC2)cc1`, the negative logarithm of the Ki (pKi) at Nociceptin receptor [1] was 5.84; in assay [2] it was 4.55; in assay [3], 4.21; on Mu-type opioid receptor it was 5.08.

For the molecule `CNCc1ccccc1C1(O)CCN(C(c2ccccc2Cl)c2ccccc2Cl)CC1`, the pKi is 9.15 on Nociceptin receptor [1], 5.42 in assay [2], 6.59 in assay [3] and 6.78 on Mu-type opioid receptor.

`COc1cccc(C2(O)CCN(C(c3ccccc3)c3ccccc3)CC2)c1`: the pKi was 6.74 on Nociceptin receptor [1], 5.02 in assay [2], 5.44 in assay [3] and 5.52 on Mu-type opioid receptor.

Regarding `Cc1ccc(C(c2ccc(C)cc2)N2CCC(O)(c3ccccc3CN)CC2)cc1`, the pKi at Nociceptin receptor [1] was 6.96; in assay [2], 5.05; in assay [3], 5.98; at Mu-type opioid receptor it was 6.30.

For `Cc1cccc(C2(O)CCN(C(c3ccccc3)c3ccccc3)CC2)c1`, the pKi was 7.57 at Nociceptin receptor [1], 5.11 in assay [2], 5.94 in assay [3] and 6.56 on Mu-type opioid receptor.

Take `NCc1ccccc1C1(O)CCN(C(c2ccccc2F)c2ccccc2F)CC1`: the pKi at Nociceptin receptor [1] was 9.30; in assay [2], 5.43; in assay [3], 6.94; at Mu-type opioid receptor it was 7.43.

As to `NCc1ccccc1C1(O)CCN(C(c2cccc(F)c2)c2cccc(F)c2)CC1`, the pKi on Nociceptin receptor [1] is 8.02; in assay [2], 5.03; in assay [3] it was 6.11; at Mu-type opioid receptor, 6.21.

Regarding `CN1CCN(Cc2ccccc2C2(O)CCN(C(c3ccccc3Cl)c3ccccc3Cl)CC2)CC1`, the negative logarithm of the Ki (pKi) at Nociceptin receptor [1] is 8.66; in assay [2], 5.77; in assay [3], 6.86; on Mu-type opioid receptor it was 6.72.

Turning to `CC(C)(C)C1(O)CCN(C(c2ccccc2)c2ccccc2)CC1`, the negative logarithm of the Ki (pKi) on Nociceptin receptor [1] was 7.21; in assay [2], 4.25; in assay [3], 5.97; at Mu-type opioid receptor it was 5.44.

In the case of `OC1(c2ccc(Cl)cc2)CCN(C(c2ccccc2)c2ccccc2)CC1`, the pKi was 7.62 on Nociceptin receptor [1], 5.20 in assay [2], 5.77 in assay [3] and 6.03 at Mu-type opioid receptor.

For the molecule `CCCCCCC1(O)CCN(C(c2ccccc2)c2ccccc2)CC1`, the negative logarithm of the Ki (pKi) at Nociceptin receptor [1] was 5.94; in assay [2], 4.75; in assay [3] it was 5.04; on Mu-type opioid receptor it was 5.05.

Regarding `CNC(=O)NCc1ccccc1C1(O)CCN(C(c2ccccc2Cl)c2ccccc2Cl)CC1`, the negative-log Ki (pKi) on Nociceptin receptor [1] was 8.70; in assay [2] it was 5.70; in assay [3], 6.67; on Mu-type opioid receptor, 6.70.

`CN(C)c1ccc(C2(O)CCN(C(c3ccccc3)c3ccccc3)CC2)cc1`: the negative-log Ki (pKi) on Nociceptin receptor [1] is 5.34.

For the molecule `OC1(c2ccc(F)cc2)CCN(C(c2ccccc2)c2ccccc2)CC1`, the negative-log Ki (pKi) is 7.85 at Nociceptin receptor [1], 5.48 in assay [2], 6.12 in assay [3] and 6.11 at Mu-type opioid receptor.

Take `OC1(c2ccccc2CN2CCNCC2)CCN(C(c2ccccc2Cl)c2ccccc2Cl)CC1`: the negative logarithm of the Ki (pKi) was 8.72 at Nociceptin receptor [1], 5.93 in assay [2], 6.58 in assay [3] and 6.84 on Mu-type opioid receptor.

Consider `OC1(c2cccs2)CCN(C(c2ccccc2)c2ccccc2)CC1`, for which the pKi is 7.32 at Nociceptin receptor [1], 5.07 in assay [2], 5.47 in assay [3] and 5.76 on Mu-type opioid receptor.

As to `OC1(c2ccco2)CCN(C(c2ccccc2)c2ccccc2)CC1`, the negative-log Ki (pKi) was 6.87 on Nociceptin receptor [1], 4.84 in assay [2], 5.02 in assay [3] and 5.34 on Mu-type opioid receptor.

For `COc1ccccc1C1(O)CCN(C(c2ccccc2)c2ccccc2)CC1`, the negative logarithm of the Ki (pKi) at Nociceptin receptor [1] was 7.07; in assay [2], 5.36; in assay [3], 5.38; on Mu-type opioid receptor, 6.01.
